Earlier results in patent publication US20260085040A1, “AMINO ACID AND CA[…] DERIVATIVES” (priority 2022, published 2026).

Experiments:
[1] = 10 patients with alcohol dependence per DSM-IV
[2] = controlled clinical environment, subjects with OCD

With `CN(C)CCc1c[nH]c2cccc(OP(=O)(O)O)c12` [psilocybin] as the molecule, how does the “Participants with biologically verified 7-day point-prevalence abstinence” value (6-month follow up) read?
The value was “eighty”.

And the “Participants biologically verified as being abstinent” value (12-month follow-up)?
Its value is 67%.

What about the Participants abstinent (follow-up 2.5 years after the target quit date) of the same molecule?
The Participants abstinent was 75%.

And the “Alcohol use post psilocybin administration” value [1]?
Its value is “significant decrease in alcohol use”.

What about the “Core OCD symptoms” value [2] of the same molecule?
Its value is “acute reductions in core OCD symptoms in several subjects”.

What about the Safety of administration [2] of the same molecule?
The Safety of administration was “safely administered”.
